Measured values: patent publication US4110327A, “2,3 Diketo-piperazinocarbonylamino alkanoic acids and derivatives” (Toyama Chemical Co., Ltd., priority 1974, dated 1978)
In brackets after ≈: the same amount, converted by molar mass.

Key:
Type in all cases: cell-based
Escherichia coli = assay: MIC against clinical isolates; details: unit assumed
Staphylococcus aureus = assay: MIC against clinical isolates; details: unit assumed
Klebsiella pneumoniae [1] = assay: MIC against clinical isolates; details: unit assumed
Salmonella typhi = assay: MIC against clinical isolates; details: unit assumed
Pseudomonas aeruginosa = assay: MIC against clinical isolates; details: unit assumed
Salmonella typhi-murium = assay: MIC against clinical isolates; details: unit assumed
Shigella sonnei = assay: MIC against clinical isolates; details: clinical isolate JS 11232; unit assumed
Protocol: (§1) The minimum inhibitory concentrations (MIC) was determined by the plate method disclosed in "Chemotherapy" (Japan), Vol. 16, (1968), pages 98 - 99. The culture medium used was a Heart infusion agar (pH 7.4). The number of the cells per plate used in the inoculum as 10^4 (10^6 cells/ml).
(§2) MIC was determined in the same manner as in the preceding paragraph (1).

Shigella flexneri = assay: MIC against clinical isolates; details: unit assumed
Protocol: as §1, §2

[2] = system: Staphylococcus aureus 209p; assay: MIC against standard strain, plate method; details: unit assumed
Summary of the method: (§3)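 Plate-method MIC. Medium: heart infusion agar, pH 7.4. Inoculum: 10^4 cells per plate (10^6 cells/ml).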

[3] = system: Pseudomonas aeruginosa I.F.O.; assay: MIC against standard strain, plate method; details: unit assumed
Summary of the method: as §3

Escherichia coli NIHJ = assay: MIC against standard strain, plate method; details: unit assumed
Summary of the method: as §3

Proteus vulgaris 3027 = assay: MIC against standard strain, plate method; details: Proteus vulgaris 3027, standard strain; unit assumed
Summary of the method: as §3

Proteus vulgaris = assay: MIC against clinical isolates; details: clinical isolate, unit assumed
Proteus rettgeri = assay: MIC against clinical isolates; details: clinical isolate, unit assumed
Proteus mirabilis = assay: MIC against clinical isolates; details: clinical isolate, unit assumed
Klebsiella pneumoniae [4] = assay: MIC against standard strain, plate method; details: unit assumed
Summary of the method: as §3

Proteus morganii = assay: MIC against clinical isolates; details: clinical isolate, unit assumed

Compound `CC(=O)N1CCN(C(=O)N[C@@H](C(=O)N[C@@H]2C(=O)N3[C@@H]2SC(C)(C)[C@@H]3C(=O)O)c2ccccc2)C(=O)C1` [compound 1] has an MIC (Escherichia coli; clinical isolate GN 3465) of 200 µg/mL (≈ 386 µM), an MIC (Escherichia coli; clinical isolate K-2) of 25 µg/mL (≈ 48.3 µM) and an MIC (Escherichia coli; clinical isolate K-3) greater than 200 µg/mL. The MIC (Staphylococcus aureus; clinical isolate F-2) was 3.13 µg/mL (≈ 6.05 µM), the MIC (Staphylococcus aureus; clinical isolate F-5) was greater than 200 µg/mL and the MIC (Staphylococcus aureus; clinical isolate MS 8596) was 3.13 µg/mL (≈ 6.05 µM). For the same compound, the MIC (Staphylococcus aureus; clinical isolate MS 8619) was 1.57 µg/mL (≈ 3.03 µM), the MIC (Staphylococcus aureus; clinical isolate MS 8684) was 3.13 µg/mL (≈ 6.05 µM) and the MIC (Staphylococcus aureus; clinical isolate MS 8713) was 3.13 µg/mL (≈ 6.05 µM). For the same compound, the MIC (Klebsiella pneumoniae [1]; clinical isolate GN 917) was 25 µg/mL (≈ 48.3 µM), the MIC (Klebsiella pneumoniae [1]; clinical isolate GN 3850) was 25 µg/mL (≈ 48.3 µM) and the MIC (Klebsiella pneumoniae [1]; clinical isolate GN 4081) was greater than 200 µg/mL. It also gave an MIC (Klebsiella pneumoniae [1]; clinical isolate GN 4117) of 200 µg/mL (≈ 386 µM), an MIC (Salmonella typhi; clinical isolate SL 819) of 6.25 µg/mL (≈ 12.1 µM) and an MIC (Salmonella typhi; clinical isolate SL 2169) of 6.25 µg/mL (≈ 12.1 µM). For the same compound, the MIC (Pseudomonas aeruginosa; clinical isolate GN 82) was 25 µg/mL (≈ 48.3 µM), the MIC (Pseudomonas aeruginosa; clinical isolate GN 163) was 25 µg/mL (≈ 48.3 µM) and the MIC (Pseudomonas aeruginosa; clinical isolate GN 221) was 25 µg/mL (≈ 48.3 µM). The MIC (Pseudomonas aeruginosa; clinical isolate GN 376) was 25 µg/mL (≈ 48.3 µM), the MIC (Pseudomonas aeruginosa; clinical isolate GN 383) was 50 µg/mL (≈ 96.6 µM) and the MIC (Pseudomonas aeruginosa; clinical isolate GN 1035) was 100 µg/mL (≈ 193 µM). It also gave an MIC (Pseudomonas aeruginosa; clinical isolate GN 1091) of 25 µg/mL (≈ 48.3 µM), an MIC (Pseudomonas aeruginosa; clinical isolate GN 2565) of 50 µg/mL (≈ 96.6 µM) and an MIC (Pseudomonas aeruginosa; clinical isolate GN 2987) of 25 µg/mL (≈ 48.3 µM). The MIC (Pseudomonas aeruginosa; clinical isolate GN (number not given; Table 5-3)) was 25 µg/mL (≈ 48.3 µM), the MIC (Pseudomonas aeruginosa; clinical isolate S-1) was 50 µg/mL (≈ 96.6 µM) and the MIC (Pseudomonas aeruginosa; clinical isolate S-2) was 100 µg/mL (≈ 193 µM). For the same compound, the MIC (Pseudomonas aeruginosa; clinical isolate S-3) was 50 µg/mL (≈ 96.6 µM), the MIC (Pseudomonas aeruginosa; clinical isolate S-4) was 50 µg/mL (≈ 96.6 µM) and the MIC (Salmonella typhi-murium; clinical isolate SL 858) was 12.5 µg/mL (≈ 24.2 µM). The MIC (Salmonella typhi-murium; clinical isolate SL 2136) was greater than 200 µg/mL, the MIC (Shigella sonnei) was greater than 200 µg/mL and the MIC (Shigella flexneri; clinical isolate JS 11215) was 100 µg/mL (≈ 193 µM). For the same compound, the MIC (Shigella flexneri; clinical isolate JS 11839) was 3.13 µg/mL (≈ 6.05 µM), the MIC [2] was less than 1.57 µg/mL and the MIC [3] was 25 µg/mL (≈ 48.3 µM). The MIC (Escherichia coli NIHJ) was less than 1.57 µg/mL and the MIC (Proteus vulgaris 3027) was 3.13 µg/mL (≈ 6.05 µM).

`CCN1CCN(C(=O)NC(C(=O)NC2C(=O)N3C(C(=O)O)=C(COC(C)=O)CSC23)c2ccccc2)C(=O)C1=O` (centres unmarked) [compound 61] showed an MIC (Proteus vulgaris) of 0.8 µg/mL (≈ 1.39 µM), an MIC (Escherichia coli; clinical isolate GN 3435) of 3.13 µg/mL (≈ 5.46 µM) and an MIC (Escherichia coli; clinical isolate GN 3452) of 6.25 µg/mL (≈ 10.9 µM). The MIC (Escherichia coli; clinical isolate GN 3465) was 50 µg/mL (≈ 87.2 µM), the MIC (Escherichia coli; clinical isolate GN 3481) was 3.13 µg/mL (≈ 5.46 µM) and the MIC (Escherichia coli; clinical isolate GN 3611) was 200 µg/mL (≈ 349 µM). It also gave an MIC (Escherichia coli; clinical isolate K-1) of 3.13 µg/mL (≈ 5.46 µM), an MIC (Escherichia coli; clinical isolate K-2) of 6.25 µg/mL (≈ 10.9 µM) and an MIC (Escherichia coli; clinical isolate K-3) of 100 µg/mL (≈ 174 µM). It also gave an MIC (Escherichia coli; clinical isolate K-4) of 6.25 µg/mL (≈ 10.9 µM), an MIC (Proteus rettgeri) of 3.13 µg/mL (≈ 5.46 µM) and an MIC (Staphylococcus aureus; clinical isolate F-1) of 3.13 µg/mL (≈ 5.46 µM). The MIC (Staphylococcus aureus; clinical isolate F-2) was 1.56 µg/mL (≈ 2.72 µM), the MIC (Staphylococcus aureus; clinical isolate F-3) was 1.56 µg/mL (≈ 2.72 µM) and the MIC (Staphylococcus aureus; clinical isolate F-4) was 3.13 µg/mL (≈ 5.46 µM). The MIC (Staphylococcus aureus; clinical isolate F-5) was 50 µg/mL (≈ 87.2 µM), the MIC (Staphylococcus aureus; clinical isolate MS 8588) was 1.56 µg/mL (≈ 2.72 µM) and the MIC (Staphylococcus aureus; clinical isolate MS 8596) was 1.56 µg/mL (≈ 2.72 µM). The MIC (Staphylococcus aureus; clinical isolate MS 8619) was 1.56 µg/mL (≈ 2.72 µM), the MIC (Staphylococcus aureus; clinical isolate MS 8684) was 1.56 µg/mL (≈ 2.72 µM) and the MIC (Staphylococcus aureus; clinical isolate MS 8713) was 1.56 µg/mL (≈ 2.72 µM). For the same compound, the MIC (Klebsiella pneumoniae [1]; clinical isolate GN 917) was 6.25 µg/mL (≈ 10.9 µM), the MIC (Klebsiella pneumoniae [1]; clinical isolate GN 4081) was 12.5 µg/mL (≈ 21.8 µM) and the MIC (Klebsiella pneumoniae [1]; clinical isolate GN 4117) was 12.5 µg/mL (≈ 21.8 µM). For the same compound, the MIC (Proteus mirabilis) was 1.56 µg/mL (≈ 2.72 µM), the MIC (Pseudomonas aeruginosa; clinical isolate GN 82) was 25 µg/mL (≈ 43.6 µM) and the MIC (Pseudomonas aeruginosa; clinical isolate GN 163) was 25 µg/mL (≈ 43.6 µM). For the same compound, the MIC (Pseudomonas aeruginosa; clinical isolate GN 221) was 6.25 µg/mL (≈ 10.9 µM), the MIC (Pseudomonas aeruginosa; clinical isolate GN 244) was 25 µg/mL (≈ 43.6 µM) and the MIC (Pseudomonas aeruginosa; clinical isolate GN 376) was 12.5 µg/mL (≈ 21.8 µM). The MIC (Pseudomonas aeruginosa; clinical isolate GN 383) was 12.5 µg/mL (≈ 21.8 µM), the MIC (Pseudomonas aeruginosa; clinical isolate GN 1035) was 100 µg/mL (≈ 174 µM) and the MIC (Pseudomonas aeruginosa; clinical isolate GN 1091) was 25 µg/mL (≈ 43.6 µM). It also gave an MIC (Pseudomonas aeruginosa; clinical isolate GN 2565) of 50 µg/mL (≈ 87.2 µM), an MIC (Pseudomonas aeruginosa; clinical isolate GN 2987) of 25 µg/mL (≈ 43.6 µM) and an MIC (Pseudomonas aeruginosa; clinical isolate S-1) of 50 µg/mL (≈ 87.2 µM). The MIC (Pseudomonas aeruginosa; clinical isolate S-2) was 50 µg/mL (≈ 87.2 µM), the MIC (Pseudomonas aeruginosa; clinical isolate S-3) was 50 µg/mL (≈ 87.2 µM) and the MIC (Pseudomonas aeruginosa; clinical isolate S-4) was 50 µg/mL (≈ 87.2 µM). It also gave an MIC (Klebsiella pneumoniae [4]) of 3.13 µg/mL (≈ 5.46 µM), an MIC [2] of less than 0.79 µg/mL and an MIC [3] of 25 µg/mL (≈ 43.6 µM). It also gave an MIC (Escherichia coli NIHJ) of less than 0.79 µg/mL, an MIC (Proteus vulgaris 3027) of 3.13 µg/mL (≈ 5.46 µM) and an MIC (Proteus morganii) of 1.56 µg/mL (≈ 2.72 µM).
